Assays:
[1] = biological target: T1, human vasopressin V1a receptor subtype (Homo sapiens, UniProt P37288); test: Vasopressin binding in CHO cell membranes expressing human vasopressin V1a subtype receptors ([3H]Manning ligand)
T1 construct: host or cells: CHO cells, stably transfected (pZeoSV vector for the Thibonnier line); membranes
Description: Vasopressin Binding in Chinese Hamster Ovary Cell Membranes Expressing Human Vasopressin V1a Subtype Receptors
Chinese hamster ovary cells (CHO cells) stably transfected with the human vasopressin V1a subtype receptors were either obtained from Biosignal Inc., 1744 rue Williams, Montreal, Quebec, Canada or obtained from M. Thibonnier, Case Western Reserve University School of Medicine, Cleveland, Ohio.
A. Passaging and Amplification of Cells:
CHO cells transfected with the human vasopressin V1a subtype receptors obtained from M. Thibonnier (pZeoSV vector) are allowed to grow to confluency (approx. >90%) in T-150 flasks under sterile conditions, in a cell culture medium of F-12 Nutrient Mixture (HAM) with L-glutamine (Gibco Cat. #11765-054) containing 15 mM HEPES (Gibco Cat. #15630-080), 1% antibiotic/antimycotic (add 5 mL 100×, Gibco Cat. #15240-062 per 500 mL F-12), 250 μg/mL Zeocin (add 1.25 mL of 100 mg/mL Invitrogen R-250-01 per 500 mL F-12) and 10% Fetal Bovine Serum (Qualified, heat inactivated, Gibco Cat. #16140-063). The medium is removed by aspiration and the cells are washed with 10 mL of Hank's Balanced Salt solution (Gibco Cat. #14175-095). The salt solution is removed by aspiration and the cells are trypsinized with 5 mL of trypsin-EDTA (0.05% trypsin, 0.53 mM EDTA-4Na, Gibco Cat. #25300-070) for 1 min. The trypsin is removed by aspiration and the cells dislodged by tapping. Cell Culture medium (eg, 30 mL for 1:30 split) is immediately added and mixed well to inactivate trypsin. 1 mL of detached cells is added to new culture flasks containing fresh cell culture medium (eg, into 25 mL per T-150 flask), and mixed gently. The cells are incubated at 37° C. in 5% CO2. The medium is changed at 3 to 4 days interval (or as appropriate). The cells grow to confluency (approx. >75%-95%) within 7-8 days. All steps are done under sterile conditions.
The cells are washed twice gently with Hank's Balanced Salt solution (e.g,. use 10 mL per T-150 flask). The excess is removed and the cells are bathed for 15-30 min. in an enzyme-free Cell Dissociation Buffer (e.g. use 8 mL Hank's Based, Gibco Cat. #13150-016 per T-150 flask) until the cells are loosened. The contents are transferred to centrifuge tubes (50 mL size) kept in ice bath. All subsequent steps are done at 4° C. The tubes are centrifuged at 300×g for 15 min (1380 rpm on SORVAL, Model RT6000D, using rotor for 50 mL tubes). The supernatant is discarded and the cells suspended in homogeneizing buffer(10 mM Tris-HCl containing 0.25 M sucrose and 1 mM EDTA, pH 7.4) ensuring that the volume of the buffer is about ten times the volume of the cell pellet. The cells are pooled into a centrifuge tube (50 mL) and homogenized with Polytron at setting 6 for 10 sec. The homogenate is transferred into a Potter-Elvjehm homogenizer and homogenized with 3 strokes. The homogenate is centrifuged at 1500×g for 10 min at 4° C. (3100 rpm using SORVAL, model RT6000D, using rotor for 50 mL tubes). The pellet is discarded. The supernatant is centrifuged at 100,000×g for 60 min. at 4° C. (Beckman L8-80M ultracentrifuge; spin at 37,500 rpm with rotor type 70 Ti for 50 mL tubes; 38,000 rpm with type 80Ti for 15 mL tubes; or 35,800 rpm with rotor type 45Ti). The supemantant is discarded and the pellet suspended in 3 to 4 mL of Tris buffer (50 mM TRIS-HCl, pH 7.4). The protein content is estimated by the Bradford or Lowry method. The volume of the membrane suspension is adjusted with the membrane buffer (50 mM Tris-HCl containing 0.1% BSA and 0.1 mM PMSF) to give 3.0 mg/mL (or as appropriate) of protein. The membranes are aliquoted and stored at −70° C.
C. Radioligand Binding Assay: […]

T1 sequence (P37288 whole entry): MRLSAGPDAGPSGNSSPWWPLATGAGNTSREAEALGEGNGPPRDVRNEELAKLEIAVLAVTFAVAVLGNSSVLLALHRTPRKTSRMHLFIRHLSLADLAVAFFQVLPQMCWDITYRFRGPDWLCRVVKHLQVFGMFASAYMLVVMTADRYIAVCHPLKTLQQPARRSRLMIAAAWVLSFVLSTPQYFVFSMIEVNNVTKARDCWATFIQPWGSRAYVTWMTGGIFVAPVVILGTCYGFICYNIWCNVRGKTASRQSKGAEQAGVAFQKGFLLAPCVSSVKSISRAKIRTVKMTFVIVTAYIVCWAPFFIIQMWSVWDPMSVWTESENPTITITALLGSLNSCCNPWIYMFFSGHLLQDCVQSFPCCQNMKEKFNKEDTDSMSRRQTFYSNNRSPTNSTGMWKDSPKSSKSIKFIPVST

| Compound | inhibition at 0.1 µM ([1]; 100 nM, value without parentheses) | melting point | IC50 ([1]; value in parentheses) |
| --- | --- | --- | --- |
| Cc1cc(C(=O)N2Cc3ccc(C(=O)N(C)C[C@@H]4OC(=O)O[C@H]4[C@H](O)[C@H]4COC(=O)O4)n3Cc3ccccc32)ccc1C1=CCCCC1 [Example 7, 10-(4-Cyclohex-1-en-1-yl-3-methylbenzoyl)-N-[((4S,5S)-5-{(R)-hydroxy[(4R)-2-oxo-1,3-dioxolan-4-yl]methyl}-2-oxo-1,3-dioxolan-4-yl)methyl]-N-methyl-10,11-dihydro-5H-pyrrolo[2,1-c][1,4]benzodiazepine-3-carboxamide] | 62% | 162 to 168 °C | – |
| COC[C@@H](OC)[C@@H](OC)[C@H](OC)[C@H](CN(C)C(=O)c1ccc2n1Cc1ccccc1N(C(=O)c1ccc(C3=CCCCC3)c(C)c1)C2)OC [Example 8, 10-(4-Cyclohex-1-en-1-yl-3-methylbenzoyl)-N-methyl-N-[(2S,3R,4R,5R)-2,3,4,5,6-pentamethoxyhexyl]-10,11-dihydro-5H-pyrrolo[2,1-c][1,4]benzodiazepine-3-carboxamide] | – | 68 to 83 °C | 315 nM |
